Test results as given in PubChem BioAssay AID256 (DTP/NCI, 2004).
“And” between values parts separate entries of the source, which are not always exact repeats. Equal entries are not always repeated. Inconclusive results and toxic doses are left out. How the source made its calls: active means survival T/C of 150% or more; inactive means T/C below 125% in these data.

System: CD2F1 mice, L1210 leukemia ip, survival T/C
Assay: NCI In Vivo Anticancer Drug Screen. Data for tumor model L1210 Leukemia (intraperitoneal) in CD2F1 (CDF1) mice
Conditions: endpoint: mean survival time, higher = longer survival
Method in brief: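 In this screen, transplantable tumors were grown in mice given either the compound or its vehicle. Results were expressed as the treated measurement relative to the control measurement.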

[1] = dose: 100.0 mg/kg/injection, schedule: Q01DX009 (ip), vehicle: saline with Tween-80
[2] = dose: 100.0 mg/kg/injection, schedule: Q04DX003 (ip), vehicle: saline with Tween-80
[3] = dose: 200.0 mg/kg/injection, schedule: Q01DX009 (ip), vehicle: saline with Tween-80
[4] = dose: 200.0 mg/kg/injection, schedule: Q04DX003 (ip), vehicle: saline with Tween-80
[5] = dose: 400.0 mg/kg/injection, schedule: Q01DX009 (ip), vehicle: saline with Tween-80
[6] = dose: 400.0 mg/kg/injection, schedule: Q04DX003 (ip), vehicle: saline with Tween-80
[7] = dose: 100.0 mg/kg/injection, schedule: Q01DX001 (ip), vehicle: saline with Tween-80
[8] = dose: 200.0 mg/kg/injection, schedule: Q01DX001 (ip), vehicle: saline with Tween-80
[9] = dose: 400.0 mg/kg/injection, schedule: Q01DX001 (ip), vehicle: saline with Tween-80
[10] = dose: 50.0 mg/kg/injection, schedule: Q01DX009 (ip), vehicle: saline with Tween-80
[11] = dose: 100.0 mg/kg/injection, schedule: Q04DX003 (ip), vehicle: saline
[12] = dose: 100.0 mg/kg/injection, schedule: Q04DX002 (ip), vehicle: saline with Tween-80
[13] = dose: 200.0 mg/kg/injection, schedule: Q04DX002 (ip), vehicle: saline with Tween-80
[14] = dose: 25.0 mg/kg/injection, schedule: Q01DX009 (ip), vehicle: saline
[15] = dose: 50.0 mg/kg/injection, schedule: Q01DX009 (ip), vehicle: saline
[16] = dose: 100.0 mg/kg/injection, schedule: Q01DX009 (ip), vehicle: saline
[17] = dose: 200.0 mg/kg/injection, schedule: Q01DX009 (ip), vehicle: saline
[18] = dose: 25.0 mg/kg/injection, schedule: Q01DX009 (ip), vehicle: saline with Tween-80

Measured: T/C

COC(=O)CCC(=O)N1C=Cc2ccccc2C1C#N (stereo not given)
inactive: [1] 98 % of control | [2] 95 % of control | [3] 102 % of control | [4] 95 % of control | [5] 102 % of control | [6] 90 % of control

CS(=O)(=O)c1cc([N+](=O)[O-])cc([N+](=O)[O-])c1Cl
inactive: dose: 2.5 mg/kg/injection, schedule: Q01DX009 (ip), vehicle: saline with Tween-80 95 % of control | dose: 5.0 mg/kg/injection, schedule: Q01DX009 (ip), vehicle: saline with Tween-80 91 % of control | dose: 5.0 mg/kg/injection, schedule: Q04DX003 (ip), vehicle: saline with Tween-80 97 % of control | dose: 10.0 mg/kg/injection, schedule: Q01DX009 (ip), vehicle: saline with Tween-80 96 % of control | dose: 10.0 mg/kg/injection, schedule: Q04DX003 (ip), vehicle: saline with Tween-80 100 % of control

CCCCCCCCC[n+]1ccc(C#N)cc1
inactive: dose: 9.38 mg/kg/injection, schedule: Q01DX001 (ip), vehicle: other 103 % of control | dose: 18.75 mg/kg/injection, schedule: Q01DX001 (ip), vehicle: other 101 % of control | dose: 37.5 mg/kg/injection, schedule: Q01DX001 (ip), vehicle: other 103 % of control

Cc1cnc(N)nc1-c1ccccc1
inactive: [7] 102 % of control | [8] 94 % of control | [9] 94 % of control

O=[N+]([O-])O.[La]
inactive: [10] 90 % of control | [1] 97 % of control | [2] 92 % of control | [11] 97 % of control | [3] 92 % of control | [4] 93 % of control | dose: 200.0 mg/kg/injection, schedule: Q04DX003 (ip), vehicle: saline 98 % of control

CCOC(=O)C(S(C)(=O)=O)S(C)(=O)=O
inactive: dose: 75.0 mg/kg/injection, schedule: Q01DX001 (ip), vehicle: saline with Tween-80 97 % of control | dose: 150.0 mg/kg/injection, schedule: Q01DX001 (ip), vehicle: saline with Tween-80 108 % of control | dose: 300.0 mg/kg/injection, schedule: Q01DX001 (ip), vehicle: saline with Tween-80 98 % of control

CCCCCCCCCCCCCCCCCCOc1ccc(Cl)cc1
inactive: [12] 90 % of control | [13] 93 % of control

CC(N)C12CC3CC(CC(C3)C1)C2 (stereo not given)
inactive: [14] 117 % of control | [15] 98 % of control | [16] 95 % of control

CN1CCCN(C)C1c1ccccc1
inactive: [14] 97 % of control | [15] 94 % of control | [16] 89 % of control | [11] 104 % of control

CCOC(=O)C(CCC(O)C#N)(CC(C)=O)C(=O)OCC (stereo not given)
inactive: dose: 75.0 mg/kg/injection, schedule: Q01DX001 (ip), vehicle: saline 100 % of control

COc1cc(C[C@@H]2COC(=O)[C@]2(O)Cc2ccc(O)c(OC)c2)ccc1O
inactive: dose: 1.0 mg/kg/injection, schedule: Q01DX009 (ip), vehicle: saline + alcohol 106 % of control | dose: 2.0 mg/kg/injection, schedule: Q01DX009 (ip), vehicle: saline + alcohol 104 % of control | dose: 4.0 mg/kg/injection, schedule: Q01DX009 (ip), vehicle: saline + alcohol 106 % of control | dose: 8.0 mg/kg/injection, schedule: Q01DX009 (ip), vehicle: saline + alcohol 103 % of control | dose: 16.0 mg/kg/injection, schedule: Q01DX009 (ip), vehicle: saline + alcohol 101 % of control

c1ccc2nc(CCc3ccc4ccccc4n3)ccc2c1
inactive: [15] 96 % of control | [16] 100 % of control | [17] 102 % of control

On1ccc(=S)c2ccccc21
inactive: [2] 102 % of control | [4] 96 % of control | [6] 102 % of control

CCCS(=O)(=O)Nc1ccc(Nc2c3ccccc3nc3ccccc23)c(OC)c1
inactive: dose: 3.75 mg/kg/injection, schedule: Q01DX009 (ip), vehicle: saline 122 % of control

CC1CCCC2C(=O)OC(=O)C12 (stereo not given)
inactive: dose: 100.0 mg/kg/injection, schedule: Q04DX003 (ip), vehicle: Klucel (hydroxypropylcellulose) (HPC) 92 % of control | dose: 200.0 mg/kg/injection, schedule: Q04DX003 (ip), vehicle: Klucel (hydroxypropylcellulose) (HPC) 98 % of control

CC1CCCN(N=Nc2ccccc2-c2nc(N)c3ccccc3n2)C1 (stereo not given)
inactive: dose: 100.0 mg/kg/injection, schedule: Q04DX002 (ip), vehicle: Klucel (hydroxypropylcellulose) (HPC) 88 % of control | dose: 200.0 mg/kg/injection, schedule: Q04DX002 (ip), vehicle: Klucel (hydroxypropylcellulose) (HPC) 92 % of control | dose: 400.0 mg/kg/injection, schedule: Q04DX002 (ip), vehicle: Klucel (hydroxypropylcellulose) (HPC) 95 % of control

COC(=O)c1c(F)c(F)c(Nc2c(F)c(F)c(C(=O)OC)c(F)c2F)c(F)c1F
inactive: [2] 95 % of control | [4] 95 % of control | [6] 91 % of control

Cc1cc(C(C)(C)C)c(OC(=S)N(C)C)c(C(C)(C)C)c1
inactive: [18] 92 % of control | [10] 89 % of control

CCCc1ccc(Nc2c3ccccc3nc3ccccc23)cc1
inactive: [12] 107 % of control | [13] 114 % of control | dose: 400.0 mg/kg/injection, schedule: Q04DX002 (ip), vehicle: saline with Tween-80 105 % of control

C=CC(=O)NCNC(=O)C=C
inactive: dose: 6.25 mg/kg/injection, schedule: Q01DX009 (ip), vehicle: saline 97 % of control | dose: 12.5 mg/kg/injection, schedule: Q01DX009 (ip), vehicle: saline 101 % of control and 102 % of control | [18] 117 % of control | [14] 97 % of control and 102 % of control | [10] 114 % of control | [15] 117 % of control and 104 % of control | [16] 117 % of control and 98 % of control | [17] 96 % of control

Cc1nc2c(O)cccn2c(=O)c1Cl
inactive: [2] 102 % of control

OCC1OCOC(CO)C(O)C1O (stereo not given)
inactive: dose: 100.0 mg/kg/injection, schedule: Q04DX002 (ip), vehicle: saline 114 % of control | dose: 200.0 mg/kg/injection, schedule: Q04DX002 (ip), vehicle: saline 111 % of control | dose: 400.0 mg/kg/injection, schedule: Q04DX002 (ip), vehicle: saline 100 % of control

CC(O)C(O)C(O)C(/C=N\N=C(/N)[S-])=N/N=C(\N)[S-].[Pt+2] (stereo not given)
inactive: [7] 111 % of control | [1] 91 % of control | [2] 88 % of control | [8] 104 % of control | [3] 94 % of control | [4] 96 % of control | [9] 106 % of control | [5] 89 % of control | [6] 89 % of control

Cc1cccc(OCCOC(=O)Nc2cccc(C(F)(F)F)c2)c1
inactive: dose: 90.0 mg/kg/injection, schedule: Q01DX009 (ip), vehicle: acetone 101 % of control | dose: 180.0 mg/kg/injection, schedule: Q01DX009 (ip), vehicle: acetone 103 % of control | dose: 360.0 mg/kg/injection, schedule: Q01DX009 (ip), vehicle: acetone 101 % of control

CC1(CO)C(O)CCC2(C)C1CCC1CC3CC12CCC3(O)CO (stereo not given)
inactive: dose: 6.25 mg/kg/injection, schedule: Q01DX009 (ip), vehicle: saline with Tween-80 119 % of control and 102 % of control | dose: 12.5 mg/kg/injection, schedule: Q01DX009 (ip), vehicle: saline with Tween-80 106 % of control and 109 % of control | [18] 110 % of control and 111 % of control | [10] 118 % of control and 111 % of control | [1] 121 % of control and 122 % of control | [3] 114 % of control and 102 % of control

N.N.O=C([O-])/C=C\C(=O)[O-].[Pt]
inactive: dose: 2.5 mg/kg/injection, schedule: Q04DX003 (ip), vehicle: distilled water + Tween-80 112 % of control | dose: 5.0 mg/kg/injection, schedule: Q04DX003 (ip), vehicle: distilled water + Tween-80 116 % of control | dose: 10.0 mg/kg/injection, schedule: Q04DX003 (ip), vehicle: distilled water + Tween-80 113 % of control | dose: 10.0 mg/kg/injection, schedule: Q04DX003 (ip), vehicle: water 105 % of control | dose: 20.0 mg/kg/injection, schedule: Q04DX003 (ip), vehicle: distilled water + Tween-80 118 % of control | dose: 20.0 mg/kg/injection, schedule: Q04DX003 (ip), vehicle: water 113 % of control | dose: 40.0 mg/kg/injection, schedule: Q04DX003 (ip), vehicle: water 118 % of control

CCCCCCCCCCCCCCCCCCCCCC(O)(CC)CC
inactive: [1] 97 % of control | [2] 94 % of control | [3] 94 % of control | [4] 94 % of control | [5] 100 % of control | [6] 95 % of control
